Laboratory results published in patent US5476847A, “Derivatives of phosphinic acid useful as endothelin converting enzyme inhibitors” (priority 1994, dated 1995).
Counter-ions that a name gives are not always drawn. Ends that are not written are not given here.

Key:
[1] = test system: I/H-induced ET-1 release in isolated perfused guinea pig lungs; assay: Isolated Perfused Guinea Pig Lung Method (ischemia/hypoxia, I/H); type: in vivo; conditions: for elevation in PIP produced by I/H (FIG. 4): subcutaneous
Experimental: The method is as described by Vemulapalli et al., in J. PharmacoL Exp. Therap., 262, 3 (1992), pp. 1062-1069. Briefly, male Dunkin-Hartley guinea pigs (400-600 g) are anesthetized with pentobarbital 30 mg/kg, ip. The trachea is cannulated to facilitate respiration. The right jugular vein is cannulated to administer saline vehicle or test compound, or compounds are administered orally or subcutaneously. Ten minutes after the administration of saline vehicle or test compound, a thoracotomy is performed and the trachea, lungs and heart are removed intact and placed in warmed Tyrode's buffer (34°-35° C.) of the following composition in mM: NaCl 120, KCl 4.8, MgSO4.7H2 O 1.2, KH2 PO4 1.2, NaHCO3 25, CaCl2.2H2 O […], glucose 11 and BSA 0.5%. The pulmonary artery and trachea are cannulated and the lungs are mounted on a perfusion apparatus. Lungs are perfused at a rate of 3.2 ml/min via the pulmonary artery with oxygenated (95% O 2 and 5% CO2) Tyrode's solution maintained at 34°-35° C. The lungs are mechanically ventilated with room air with a volume of 2.5 ml/stroke and 50 strokes/min. Pulmonary insufflation pressure (PIP) is monitored through a side arm of the perfusion apparatus with a Statham pressure transducer and recorded on a Grass polygraph. Lungs are allowed to stabilize for 15 min. Lung effluents (50 ml) are collected every 15 min into chilled polypropylene centrifuge tubes (Corning) containing 100 μl each of aprotinin (200 kallikrein inhibitory units/ml) and soybean trypsin inhibitor (20N-α-benzoyl-L-arginine ethyl ester units/ml). Ischemia-hypoxia (I/H) is produced by cessation of ventilation and perfusion for 15 min followed by reperfusion and reventilation for 60 min. At the end of the experiment, the lungs are tested for cardiopulmonary reactivity by challenging with 5-hydroxy-tryptamine (0.5 mg) directly into the lungs via a pulmonary artery cannula.
In a separate study, anesthetized guinea pigs are administered saline vehicle or test compound. Ten minutes later, the lungs are removed and mounted on a perfusion apparatus as described above. After an equilibration period of 15 min, BET-1 (30 μg over 15 min) or ET-1 (0.6 μg over 15 min) is infused directly into the perfusion medium and the effects on PIP in vehicle and test compound-treated guinea pig lungs are assessed.
FIGS. 3 to 6 show the results of four compounds of the invention on I/H-induced ET-1 release in isolated perfused guinea pig lungs. The compounds include Compounds A and B, identified above, and: […]

ECE = assay: BET Challenge Method (pressor response to BET-1 in anesthetized rats); conditions: BET-1 5 μg/kg
Experimental: ECE in vivo activity is determined as described by Vemulapalli et al.,in Life Sciences, 53 (1993), pp. 783-793. Briefly, male Charles River CD rats (Wilmington, Mass.) weighing 250-275 g are anesthetized with Inactin, 100 mg/kg, ip. The trachea is catheterized. The right carotid artery and the right jugular vein are cannulated to record blood pressure (BP) and to infuse drugs, respectively. […] The rectal temperature is kept at 37° C. After an equilibration period of 15-30 min, the rats are infused with saline vehicle (20 μl/min) or test compounds (0.01-0.25 mg/kg/min) throughout the study. Thirty minutes after the start of infusion, the rats are challenged with BET-1 (5 μg/kg) via the venous catheter, and the BP is monitored for another 15 min.

[2] = S. Bertenshaw, et al, J. Med. Chem., 36(1993); cited from earlier work

**Q.** What does the source list for CC(C)CC(CP(=O)(O)C(Cc1ccc2ccccc2c1)NC(=O)[C@H](CCCCNC(=O)OCc1ccccc1)NS(C)(=O)=O)C(=O)N[C@@H](Cc1c[nH]c2ccccc12)C(=O)O (stereo partly drawn) [Compound B, N-[2-[[hydroxy[1-[[2(S)-[(methylsulfonyl)amino]-1-oxo-6-[[phenylmethoxy)-carbonyl]amino]hexyl]amino]-2-(2-naphthalenyl)ethyl]phosphinyl]methyl]-4-methyl-1-oxopentyl]-L-tryptophan disodium salt]?
**A.** elevation in PIP produced by I/H (FIG. 4) ([1]; 3 mg/kg, 1 hour): attenuated; elevation in PIP produced by I/H (FIG. 4) ([1]; 10 mg/kg, 6 hours): attenuated; elevation in PIP produced by I/H (FIG. 4) ([1]; 30 mg/kg, 6 hours): attenuated; effect on blood pressure response to BET-1 challenge, compared to vehicle (FIG. 2) (ECE; 0.1 mg/kg/min infusion, result in words): does not have an effect; lower blood pressure in response to the BET-1 challenge, compared to vehicle (FIG. 2) (ECE; 0.3 mg/kg/min infusion): ~22 mmHg

**Q.** With CC(C)C(CP(=O)(O)C(Cc1ccccc1)NC(=O)C(CCCCN)NS(C)(=O)=O)C(=O)N[C@@H](Cc1c[nH]c2ccccc12)C(=O)O (stereo partly drawn) [Compound C] as the compound, how does the “elevation in PIP produced by I/H (FIG. 5)” value ([1]; iv, 10 mg/kg) read?
**A.** attenuated

**Q.** For CC(C)CC(CP(=O)(O)C(Cc1ccccc1)NC(=O)C(CC(C)C)NC(=O)OCc1ccccc1)C(=O)NC(Cc1c[nH]c2ccccc12)C(=O)O (stereo not drawn) [Compound D, N-[2-[[hydroxy[2-[1-[4-methyl-1-oxo-2-[[(phenylmethoxy)carbonyl]amino]pentyl]amino]-2-phenylethyl]phosphinyl]methyl]-4-methyl-1-oxopentyl]-tryptophan], which “ET-1 release following I/H (FIG. 6)” value ([1]; iv, 10 mg/kg) is on record?
**A.** attenuation

**Q.** For CS(=O)(=O)N[C@@H](CCCCN)C(=O)N[C@@H](Cc1ccccc1)P(=O)(O)CC1(C(=O)N[C@@H](Cc2c[nH]c3ccccc23)C(=O)[O-])CCCC1.[Li+] [Example 5, N-[[1-[[hydroxy-[1(R)-[[6-amino-2(S)-[(methylsulfonyl)amino]-1-oxohexyl]-amino]-2-phenylethyl]phosphinyl]methyl]cyclopentyl]carbonyl]-L-tryptophan lithium salt], which “lower blood pressure in response to the BET-1 challenge, compared to vehicle (FIG. 1)” value (ECE; 0.1 mg/kg/min infusion) is on record?
**A.** ~15 mmHg

**Q.** With “ET-1: endothelin-1, peptide with potent vasoconstrictive and mitogenic activity (CSCSSLMDKECVYFCHLDIIW; ends and bridges not checked; cysteine pairing not given here; UniProt P05305 53-73, looked up)” as the compound, how does the “times more potent than its precursor big-endothelin-1 (BET-1)” value [2] read?
**A.** approximately 100 times
